Test system: IBABP mRNA in HT29-FXRFL cells
Assay: Northern blot of IBABP mRNA induction in HT29 stable cell lines
Assay type: cell-based, human
Protocol: 20 μg total RNA was isolated using Trizol (Invitrogen) and used for Northern blot analysis. cDNA probe for human IBABP was prepared and hybridized to the blot. Blots were normalized by β-actin expression.
HepG2 or HT29-derived cell lines were typically cultured in medium containing superstripped FBS for 24 hr before the addition of a ligand or DMSO (vehicle) for an additional 24-48 hr. Total RNA was isolated using TRIzol reagent and was resolved (10 μg/lane) on a 1% agarose, 2.2 M formaldehyde gel, transferred to a nylon membrane (Hybond N^+; Amersham Biosciences, Inc.), and cross-linked to the membrane with UV light.
cDNA probes were radiolabeled with [α-^32P]dCTP using the highprime labeling kit (Amersham Biosciences, Inc.). Membranes were hybridized using the QuikHyb hybridization solution (Stratagene, La Jolla, Calif.) according to the manufacturer's protocol. Blots were normalized for variations of RNA loading by hybridization to a control probe, either, 18 S ribosomal cDNA, or the ribosomal protein 36B4. The RNA levels were quantitated using a PhosphorImager (ImageQuant software; Molecular Dynamics, Inc., Sunnyvale, Calif.) in addition to being exposed to X-ray film.
Human colon cells HT29 (FXR null until differentiated) were infected with retroviral vectors that expressed either FXR constructs and the puromycin-resistant gene or the puromycin-resistant gene alone. Puromycin resistant cells were isolated and pooled cell populations were propagated that harbored either the vector alone (HT29-BABE), overexpressed FXR full length (HT29-FXRFL), a non-functional FXR truncated at the AF2 region (HT29-FXR-AF2), or a constitutively active FXR that has the VP16 activation domain fused N-terminal of the protein (HT29-VP16-FXR). Confirmation of the successful establishment of the different stable cell lines was established via northern blot analysis of FXR message levels in the cells (see FIG. 4A). […]
The ability of the novel compounds identified herein to induce IBABP gene expression in this cell system was also examined. Total RNA from HT29 stable cells treated overnight with fexaramine, fexarine and fexarene was probed for IBABP gene expression (see FIG. 4D).

[1] = HT29-FXRFL, overnight treatment

C[C@H](CCC(=O)O)[C@H]1CC[C@H]2[C@@H]3[C@H](O)C[C@@H]4C[C@H](O)CC[C@]4(C)[C@H]3CC[C@]12C [CDCA, chenodeoxycholic acid, reference compound]
induction of IBABP mRNA in control lines (HT29-BABE or HT29-FXR-AF2 cell lines): No induction | concentration of maximal activation of the IBABP gene [1]: 100 µM | induction of IBABP mRNA [1]: robust concentration dependent induction

Source: patent US7647217B2, “Structure of the farnesoid X receptor ligand binding domain and methods of use therefor” (The Salk Institute for Biological Studies, priority 2002, dated 2010)
